Laboratory results as given in article PMC9606171, “Synthetic PPAR Agonist DTMB Alleviates Alzheimer’s Disease Pathology by Inhibition of Chronic Microglial Inflammation in 5xFAD Mice” (Neurotherapeutics, 2022).

What was measured:
[1] = target: T1, recombinant human PPARα LBD (Homo sapiens, UniProt Q07869); assay: CNBr-bead pull down assay, PPARα LBD; assay type: binding; conditions: drug conjugated CNBr beads
T1 sequence (Q07869 239-466 limits assumed): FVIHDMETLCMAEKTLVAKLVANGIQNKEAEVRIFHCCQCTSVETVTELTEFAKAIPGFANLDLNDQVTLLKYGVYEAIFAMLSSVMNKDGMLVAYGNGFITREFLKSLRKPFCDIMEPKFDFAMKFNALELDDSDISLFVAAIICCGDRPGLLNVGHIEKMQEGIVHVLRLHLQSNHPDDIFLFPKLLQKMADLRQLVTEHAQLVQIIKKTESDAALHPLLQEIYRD
Method: (§1) CNBr Sepharose 4B beads were prepared and activated according to the instruction. 100 mg of CNBr activated Sepharose 4B beads were incubated with drugs or DMSO for 18 h at 4 °C. The drug conjugated beads reacted to his-tagged recombinant PPAR α, β/δ, and γ protein. After 24 h of incubation, we confirmed whether recombinant protein binds to the drug conjugated bead through western blotting experiment.

[2] = target: T2, recombinant human PPAR β/δ LBD (Homo sapiens, UniProt Q03181); assay: CNBr-bead pull down assay, PPAR β/δ LBD; assay type: binding; conditions: drug conjugated CNBr beads
T2 sequence (Q03181 211-439 limits assumed): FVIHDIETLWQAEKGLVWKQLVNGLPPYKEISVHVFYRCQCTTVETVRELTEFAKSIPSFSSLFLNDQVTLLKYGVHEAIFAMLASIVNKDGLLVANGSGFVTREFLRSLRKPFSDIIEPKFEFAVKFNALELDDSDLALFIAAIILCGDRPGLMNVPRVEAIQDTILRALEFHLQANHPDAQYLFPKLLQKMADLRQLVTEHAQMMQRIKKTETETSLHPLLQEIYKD
Method: as §1

[3] = target: T3, recombinant human PPARγ LBD (Homo sapiens, UniProt P37231); assay: CNBr-bead pull down assay, PPARγ LBD; assay type: binding; conditions: drug conjugated CNBr beads
T3 sequence (P37231 238-503 limits assumed): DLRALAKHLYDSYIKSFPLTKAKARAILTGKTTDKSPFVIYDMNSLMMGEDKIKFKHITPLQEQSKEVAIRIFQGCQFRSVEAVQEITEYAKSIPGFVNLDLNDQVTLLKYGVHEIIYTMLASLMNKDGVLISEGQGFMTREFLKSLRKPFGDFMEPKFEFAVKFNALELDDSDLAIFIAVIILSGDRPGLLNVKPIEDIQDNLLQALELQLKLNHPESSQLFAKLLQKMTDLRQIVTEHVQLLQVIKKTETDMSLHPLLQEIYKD
Method: as §1

BV2 = assay: Cell viability assay (MTT), BV2; assay type: cell-based, mouse; conditions: 48 h
Method: Cell viability was measured by chromogenic assay involving the biological reduction of 3-(4,5-dimethyl-thiazol-2-yl)-2,5-diphenyltetrazoliumbromide (MTT) to formazan in living cells. Briefly, cells were seeded in 96-well plates in a final volume of 100 μL. After 24 h, the culture media were replaced with fresh media containing DTMB compounds, and the cells were cultured for another 48 h. Next, MTT (5 mg/mL in PBS) was added to the culture medium. The cells were incubated for 1 h in the dark at 37 °C, and the supernatant was then removed from the well. Total MTT solvent (4 mM HCl and 0.1% Nonidet P-40, both in isopropanol) was added to dissolve the formazan crystal, and absorbance was measured at 570 nm using a microplate reader Infinite 200 Pro NanoQuant microplate reader (TECAN, Switzerland).

primary microglia = assay: Quantitative PCR of NF-κB target genes in primary microglia; assay type: cell-based, mice
Method: Primary microglia culture was conducted as described in a previous study. Mice at postnatal day 3 mice were used for the preparation of primary microglia. Newborn mice pups were anesthetized in ice and then sacrificed. Isolated cortex and hippocampus were collected after removing the meninges. Brain tissues were dissociated by incubating in HBSS (Gibco, Gaithersburg, MD, USA) with trypsin (2.5%) for 15 min. Cell homogenates were then incubated in M-CSF (20 ng/mL, R&D Systems) supplemented with DMEM-F12 medium with 10% fetal bovine serum, 10% horse serum, 1% GlutaMAX (Gibco, MD, USA), and 1% penicillin/streptomycin (Welgene, Korea). After 10 days, microglia were purified through shaking at 260 rpm for 2 h.
Total RNA was isolated using TRI Reagent (Molecular Research Center, Cincinnati, OH, USA). RNA was reverse transcribed using the ImProm-II™ Reverse Transcription System (Promega) according to the manufacturer’s instructions. For detection and quantification, a StepOnePlus Real-Time PCR System (Applied Biosystems, Foster City, CA, USA) was used with FastStart Universal SYBR Green Master (Roche, Basel, Switzerland). Real-time qPCR data were analyzed using the comparative CT method. Sample sizes were 10–15 mice per group.

5xFAD mice = assay: Immunohistochemistry of gliosis (Iba-1, GFAP) in 5xFAD brain; assay type: in vivo; conditions: cortex and hippocampus, versus transgenic controls
Method: DTMB was synthesized from Daejung Chemicals (Korea) and was dissolved in dimethyl sulfoxide (Sigma Aldrich, St. Louis, MO, USA) for cell-based experiments. To evaluate the effects of DTMB on 5xFAD mice, DTMB (10 mg/kg) and vehicle (1% carboxymethylcellulose and 10% DMSO) were orally administrated to four groups (wild-type, wild-type + DTMB, 5xFAD, and 5xFAD + DTMB) with a 6 day per week for 3 months.
Mice were perfused with ice-cold phosphate-buffered saline (PBS). Brain tissues were separately used for either molecular analysis or immunohistochemistry. The right hemisphere was fixed with 4% PFA and was transferred to a sucrose solution (30%) for 24 h. The right hemisphere was embedded and frozen in optimal cutting temperature compound on dry ice. Coronal Sections (18 μm thick) that included the hippocampus were cut and prepared on slide glasses. Tissue sections were then permeabilized and blocked using a blocking solution (5% goat serum and 0.2% Triton X-100 in PBS) for 1 h at room temperature. Primary antibody incubation was performed overnight at 4 °C using an anti-6e10 antibody (Biolegend, Japan, 1:100), anti-Iba1 antibody (Wako, Japan, 1:200), and anti-GFAP antibody (Abcam, Cambridge, UK, 1:200). […] Slides were counterstained in Hoechst and then mounted in fluorescence mounting medium (Dako, Denmark). […] Fluorescence was measured by calculating % area and was analyzed using ImageJ. […]

binding to PPAR LBD (pull-down, western blot) ([1]; PPARα LBD): binds
binding to PPAR LBD (pull-down, western blot) [2]: binds
binding to PPAR LBD (pull-down, western blot) [3]: binds
SMILES: COc1ccc(-c2cc(=O)oc3c(C)c(OC(=O)[C@H](Cc4c[nH]c5ccccc45)NC(=O)OC(C)(C)C)ccc23)cc1 [DTMB]
binding to PPARα LBD compared to WY14643 (pull-down) [1]: stronger binding to PPARα LBD than WY14643
cytotoxicity (MTT) (BV2): no cytotoxicity
mRNA levels of NFκB (primary microglia): no change
expression of NF-κB target genes Il-6, Il-1β, and Inos (primary microglia; primary microglia, mRNA): decreased
expression of anti-inflammatory marker (Arg-1) (primary microglia; primary microglia, mRNA): induced
percentage of areas stained for Iba-1 and GFAP (gliosis of microglia and astrocyte) (5xFAD mice): decreased
